Measurements: US8685936B2, “Sphingosine kinase inhibitor prodrugs” (Apogee Biotechnology Corporation, priority 2009, dated 2014)
Entries after “also recorded” stand apart in the source; their conditions may differ.

Key:
[1] = system: TNBS-induced Crohn's Disease model; assay: TNBS-induced Crohn's Disease model; assay type: in vivo
Method: FIG. 12. Effects of Compound 1 and Compound 2 on colon histology in the TNBS-induced Crohn's Disease model. On Day 0, female Sprague-Dawley rats were administered TNBS using a stainless steel catheter that was inserted into the colon (8 cm proximal to the anus; 1.0 mL of solution containing 30 mg TNBS and 20% ethanol in PBS). On Days 0-5 animals received daily oral gavage of Vehicle (described in FIG. 7) or 50 mg/kg of Compound 1 or Compound 2 in Vehicle. On Day 6, the colons were removed, weighed and scored for macroscopic damage. The distal 6 cm were transected for subsequent histology and biochemical analyses. In this model, the macroscopic score is an index of histologic damage to the colon which increases as the disease progresses.
FIG. 13. Effects of Compound 1 and Compound 2 on colon weight in the TNBS-induced Crohn's Disease model. Colon weights were measured for the rats described in FIG. 12. Values represent the mean±std. dev. for 5-6 rats per group. In this model, colon weight increases as the disease progresses due to progressive inflammation-mediated edema.
FIG. 14. Effects of Compound 2 on neutrophil infiltration into the colon in the TNBS-induced Crohn's Disease model. Neutrophil infiltration was evaluated in the rats described in FIG. 12. Values represent the mean±std. dev. for 5-6 rats per group. In this model, MPO activity in the colon increases as a result of neutrophil infiltration into the colon as the disease progresses.
The trinitrobenzene sulfonic acid (TNBS) model in rats provides a rapid, reliable and reproducible IBD model that mimics the manifestations of Crohn's Disease. Application of the hapten TNBS to the colon in the presence of ethanol results in transmural infiltrative disease that is limited to the colon and appears to be an IL-12-driven, Th1-mediated immunologic response. […] TNBS induces measurable injury within 2 to 3 days, peak acute inflammation within a week, and gradual progression into chronic inflammation lasting about 2 months.
To test the efficacy of the Compounds, groups of female Sprague-Dawley rats were administered TNBS on Day 0 and treated with vehicle (as the negative control group), Compound 1 or Compound 2 on Days 0-5 by oral gavage at a dose of 50 mg/kg/day. […] Disease progression was evaluated by macroscopic score, colon weight and colon MPO activity at sacrifice. The macroscopic score measures macroscopic damage within the distal 6 cm of the colon using a system that considers the extent of and number of ulcerations.

[2] = system: DSS-colitis model; assay: Acute DSS-colitis model of inflammatory bowel disease; assay type: in vivo, C57BL/6 mice
Method: FIG. 7. Effects of Compound 1 and Compound 2 on the Disease Activity Index (DAI) in the acute DSS-colitis model. […] After 6 days, the DAI was calculated for each group. Values represent the mean±std. dev. for 5-6 mice per group. […] FIG. 8. Effects of Compound 1 and Compound 2 on colon length in the acute DSS-colitis model. […] After 6 days, the animals were sacrificed and the length of the colon was measured. Values represent the mean±std. dev. for 6-7 mice per group. In this model, colon length decreases as the disease progresses. […] FIG. 9. Effects of Compound 1 and Compound 2 on neutrophil infiltration into the colon in the acute DSS-colitis model. […] After 6 days, the animals were sacrificed and the colons were harvested. Myeloperoxidase activity (MPO) was measured and normalized by the protein concentration of the samples. Values represent the mean±std. dev. for 6-7 mice per group. In this model, MPO activity in the colon increases as a result of neutrophil infiltration into the colon as the disease progresses. […] FIG. 10. Effects of ester prodrugs on colon length in the acute DSS-colitis model. C57BL/6 mice were treated for 6 days as follows: 2% DSS in the drinking water and daily oral administration of Vehicle (described in FIG. 7); or 2% DSS in the drinking water and oral administration of 50 mg/kg the indicated ester prodrugs in Vehicle. After 6 days, the animals were sacrificed and the length of the colon was measured. Values represent the mean±std. dev. for 4-5 mice per group. In this model, colon length decreases as the disease progresses. […] FIG. 11. Effects of ester prodrugs on neutrophil infiltration into the colon in the acute DSS-colitis model. C57BL/6 mice were treated for 6 days as follows: 2% DSS in the drinking water and daily oral administration of Vehicle (described in FIG. 7); or 2% DSS in the drinking water and oral administration of 50 mg/kg the indicated ester prodrugs in Vehicle. After 6 days, the animals were sacrificed and the length of the colon was measured. Values represent the mean±std. dev. for 4-5 mice per group. In this model, MPO activity in the colon increases as a result of neutrophil infiltration into the colon as the disease progresses. […] In these experiments, male C57BL/6 mice were provided with standard rodent diet and water ad libitum. After their acclimation, the animals were randomly divided into groups of 5 or 6 for DSS (40,000 MW from ICN Biomedicals, Inc., Aurora, Ohio)- and drug-treatment. The Compounds were dissolved in a Vehicle consisting of 46.7% PEG 400, 46.7% of a solution of 0.375% Tween 80 in saline and 6.6% ethanol, and given once daily (starting on Day 0) by oral gavage in a volume of 0.1 mL per dose. The mice were given normal drinking water or 2% DSS (starting on Day 0) and treated orally with Compound 1 or Compound 2 at a dose of 50 mg/kg daily. The body weight of each animal was measured each day, and the Disease Activity Index (DAI) was scored for each animal on Day 6. On Day 6, the animals were sacrificed by cervical dislocation and the entire colon was removed and measured to the nearest 0.1 cm. The distal 3 cm of the colons were used for biochemical analyses of inflammation markers.

[3] = TNBS Day 0, 50 mg/kg/day oral gavage Days 0-5, Day 6, female Sprague-Dawley rats

CC(=O)Oc1ccc(CCNC(=O)C23CC4CC(C2)CC(c2ccc(Cl)cc2)(C4)C3)cc1OC(C)=O [Compound 2, Acetic acid 2-acetoxy-5-(2-{[3-(4-chlorophenyl)-adamantane-1-carbonyl]-amino}ethyl)phenyl ester]
Compound-related toxicities ([1]; 50 mg/kg/day oral gavage Days 0-5, rats sacrificed on Day 6): no Compound-related toxicities apparent | Macroscopic Score of colon damage [1, 3]: reduced the Macroscopic Score | colon MPO activity (granulocyte infiltration) [1, 3]: reduced MPO activity in the colon | colon weight [1, 3]: reduced the elevation of the colon weight | Disease Activity Index (DAI) ([2]; 2% DSS in drinking water, 50 mg/kg daily oral, Day 6, C57BL/6 mice, 50 mg/kg): reduced the intensity of the IBD manifestations; also recorded: superior to Compound 1 in reducing the DAI | colon myeloperoxidase (MPO) activity (neutrophil infiltration) ([2]; 2% DSS, 50 mg/kg daily oral, Day 6, C57BL/6 mice (Example 16, FIG. 9), 50 mg/kg): markedly attenuated; also recorded: reduced to a greater extent | colon length (contraction of the colon), ester prodrugs ([2]; 2% DSS, 50 mg/kg oral, 6 days, C57BL/6 mice, 4-5 per group (Example 17, FIG. 10)): effective in preventing the contraction of the colons | colon length ([2]; 2% DSS, 50 mg/kg oral, Day 6, C57BL/6 mice (Example 16, FIG. 8), 50 mg/kg): colons of significantly longer length; also recorded: superior to the protective effect of Compound 1
